Measured values: patent publication US9271946B2, “Use of a RAR antagonist or inverse agonist for the treatment of chemotherapy and/or radiation therapy side effects” (IO Therapeutics, Inc., priority 2006, dated 2016)

Experiments:
RARγ = target: T1, RARγ (Homo sapiens, UniProt P13631); assay: binding to RARγ
T1 sequence (P13631 1-454): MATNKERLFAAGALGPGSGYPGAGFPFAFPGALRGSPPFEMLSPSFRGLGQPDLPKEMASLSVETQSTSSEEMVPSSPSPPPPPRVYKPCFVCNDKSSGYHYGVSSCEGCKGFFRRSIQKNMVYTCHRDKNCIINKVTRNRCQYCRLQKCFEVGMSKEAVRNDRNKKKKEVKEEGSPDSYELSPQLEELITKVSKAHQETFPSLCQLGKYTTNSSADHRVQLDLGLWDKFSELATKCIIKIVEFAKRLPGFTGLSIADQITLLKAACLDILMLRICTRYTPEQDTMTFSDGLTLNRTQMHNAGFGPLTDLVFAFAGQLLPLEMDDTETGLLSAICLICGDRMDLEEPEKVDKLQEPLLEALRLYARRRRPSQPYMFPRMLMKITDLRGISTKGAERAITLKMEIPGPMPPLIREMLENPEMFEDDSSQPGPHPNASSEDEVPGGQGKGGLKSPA

[1] = tested on: CPM-induced leukopenic mice; assay: peripheral and systemic neutrophil recovery in CPM-induced leukopenic mice, spleen and bone marrow (Example 2); assay type: in vivo, mouse
Experimental: Leukopenia was induced in male BDF1 mice (C57Bl×DBA2, 7.5-12 weeks) by an intra-peritoneal (i.p.) injection of 200 mg/kg Cyclophosphamide (CPM, Sigma-Aldrich, Saint Louis, Mo.) in 0.2 ml saline. The effect of VTP 194310 on leukocyte recovery was evaluated by oral gavage of animals with 1 mg/kg of VTP 194310 as indicated in the results section. VTP 194310 (dissolved in DMSO) was diluted through peanut oil as the vehicle (dosed at 5 ml/kg). Control mice were given DMSO and vehicle alone. As a positive control, granulocytopoiesis was stimulated in CPM-treated mice by a single sub-cutaneous injection of 10 μg/kg pegylated recombinant methionyl human granulocyte colony-stimulating factor (PEG-r-metHuG-CSF) (Neulasta, Pegfilgrastim; Amgen, Thousand Oaks, Calif.) on day 2. Three separate experiments were performed.
Peripheral blood (60 μl) was collected under anaesthesia from the retroorbital sinus of the mice with heparinized capillary tubes and transferred to EDTA-coated microtainer tubes (Becton Dickinson, Franklin Lakes, N.J.). White cell, neutrophil, and lymphocyte counts were obtained for at least three mice per group by diluting the blood 1:4 with PBS containing 5% bovine serum albumin (Fraction V; Sigma, Saint Louis, Mo.), and by using an Advia 120 Hematology System (Bayer HealthCare Diagnostics Division, Tarrytown, N.Y.).
Immature (Gr-1^low/CD11b^+ve) and mature (Gr-1^+ve/CD11b^+ve) neutrophils were identified in single cells suspensions prepared from spleen and bone marrow (femur) aspirates by double immunostaining using PE- and FITC-conjugated monoclonal antibodies (Pharmingen, San Diego, Calif.). Cells were analysed on a FACS Calibur interfaced with CellQuest Pro software program (Becton Dickinson, San Jose, Calif.).
These mice were gavaged with VTP 194310 on days −1 to 2 in relation to CPM treatment.

[2] = tested on: S. aureus 29213 infection in leukopenic female BDF1 mice; assay: protective effect against S. aureus infection in leukopenic mice (Example 3); assay type: in vivo, mouse
Experimental: S. aureus 29213 obtained from American Type Culture Collection (ATCC) (Rockville, Md.) was used to induce infections in leukopenic female BDF1 mice (20-22 g). S. aureus were cultured at 37° C. in Tryptic Soy broth until the mid-logarithmic phase of growth (optical density at 600 nm=0.3), harvested, and washed with PBS. The number of bacteria was enumerated by serial dilution with PBS, plating onto blood agar, and counting colony-forming units (CFU) 48 hours after incubation at 37° C. The suspension was adjusted to […].
Mice were rendered leukopenic by i.p. injection of CPM at 200 mg/kg. A lethal dose (LD) of S. aureus was determined by intravenous injections of 1×10^3 to 1×10^8 CFU to groups of 10 mice 4 days after CPM treatment. 10-day survivors were enumerated, and the LD95 of S. aureus was calculated by Probit analysis. Treatment with VTP 194310 (at 1 mg/kg) was started one day before CPM and continued for 3 more days. Four days after CPM, the animals were infected intravenously with 4.1 and 2.5×10^6 CFU of S. aureus in 200 μl of PBS. Surviving animals were recorded daily for 14 days after the challenge. […] All experiments were performed in compliance with relevant laws and institutional guidelines, and were approved by the Animal Care and Use Committee.

[3] = tested on: CPM-induced neutropenic male BDF1 mice; assay: mono-therapy and combination therapy on neutrophil recovery in CPM-induced neutropenic mice (Example 4); assay type: in vivo, mouse
Experimental: VTP 194310 DMSO stock solution was made by weighing out VTP 194310 and dissolved in DMSO (25 mg/1.33 ml DMSO). This stock solution was then mixed with Vehicle (39.2 ml Corn Oil+0.8 ml DMSO).
The 3.0 mg/kg VTP194310 solution was made by mixing 39.2 ml Corn Oil+0.8 ml VTP 194310 DMSO Stock.
The 1.0 mg/kg VTP194310 solution was made by diluting the VTP194310 DMSO Stock 1:3 with DMSO (e.g. 1 ml DMSO+0.5 ml 4310 Stock), and then combining 39.2 ml Corn Oil+0.8 ml of the diluted VTP194310 Stock.
The 1 and 10 μg/kg PEG-G-CSF solutions were made by diluting 6 mg/ml stock with PBS.
Male BDF1 mice (C57Bl×DBA2), 7-8 weeks old, DOB: 1 Jun. 2006) were used in this experiment.
35 μl of blood (via the submandibular vein) were collected according to the scheduled time points or until the full recovery of blood cells and platelets. The blood samples were analyzed after 1:5 dilution with PBS saline containing 2% BSA (Fraction V) and 0.2 mM EDTA on the Hematology Analyzer Cell-DYN 3700 (Abbott Diagnostics).
Each group of mice were treated with vehicle, VTP 194310 at 3 mg/kg, PEG-G-CSF at 1 or 10 μg/kg, and CPM at 150 mg/kg. The mean numbers of total white blood cells (WBC), neutrophils, lymphocytes, red blood cells (RBC) and platelets and standard error (SE) for data obtained for each treated group are shown in FIG. 4. […] Combination treatment with VTP 194310 and PEG-G-CSF further increased recovery.

With `CCc1ccc(C2=CC(C)(C)Sc3ccc(C#Cc4ccc(C(=O)O)cc4)cc32)cc1` [VTP 194310, 4-[[4-(4-ethylphenyl)-2,2-dimethyl-(2H)-thiochromen-6-yl]-ethynyl]-benzoic acid] the Ki (RARγ) was 5 nM, the “absolute number of immature granulocytes (Gr-1low/CD11b+ve) in the spleen” value ([1]; day 7) was 0.93±0.02 ×10^7 and the “absolute number of Gr-1+ve/CD11b+ve cells in the spleen” value ([1]; days 6 and 7) was “significantly increased”. The “immature granulocytes (Gr-1low/CD11b+ve) in the spleen” value ([1]; days 6 and 7) was “elevated”, the “neutrophil, and lymphocyte counts compared to control recovering mice” value ([1]; days 6 to 8, gavaged days −1 to 2) was “significantly elevated” and the “spleen weight compared to controls” value ([1]; days 7 and 8, gavaged days −1 to 2) was “increased”. The “Gr-1+ve/CD11b+ve cells in the bone marrow” value ([1]; gavaged days −1 to 2) was “increased prevalence”, the “protective effect against S. aureus infection compared to controls” value ([2]; Logrank p=0.0031 (4.1×10^6 CFU), p<0.0001 (2.5×10^6 CFU)) was “very significant protective effect” and the mice alive ([2]; day 10, each of the doses of S. aureus (4.1 and 2.5×10^6 CFU), 1 mg/kg days −1 to 2) was 83%. For the same compound, the mice alive ([2]; day 14, 2.5×10^6 CFU S. aureus) was 67%, the mice alive ([2]; day 14, higher dose of bacteria (4.1×10^6 CFU)) was 42% and the “effectiveness in enhancing neutrophil recovery compared to PEG-G-CSF at 10 μg/kg” value ([3]; CPM-induced mouse model) was “similarly effective”. The “neutrophil recovery relative to control” value ([3]; monotherapy, CPM 150 mg/kg Day 0, VTP 194310 1 or 3 mg/kg/day oral Days −1 to 1, PEG-G-CSF 1 or 10 μg/kg s.c. Day 2) was “enhanced neutrophil recovery”.
